Laboratory results as given in US12370183B2, “Compositions and methods for treating malaria” (Rutgers, The State University of New Jersey, priority 2020, dated 2025).
Where two headings read alike, the source gives them in different places.

How the values were obtained:
Type in all cases: cell-based
[1] = test system: 3D7 strain of Plasmodium falciparum; test: Potency in the 3D7 strain of Plasmodium falciparum (EC50); conditions: Plasmodium falciparum
Excerpt: (§1) The present invention relates to methods of treating malaria with tetrahydrobenzonaphtyridine carboxanilide (TBN) derivatives and related pyrrolinones and hydrolysis products thereof. These compounds are active against Plasmodium falciparum strains that are resistant to multiple drugs currently on the market. The present invention further relates to novel compounds and pharmaceutical compositions comprising such compounds. The compounds have been synthesized and tested for their potency in the 3D7 strain of Plasmodium falciparum. Their cytotoxicity was also tested in the BJ human fibroblast line. No compounds show significant cytotoxicity.
(§2) A high-throughput screen performed against the Plasmodium parasite. About 8,000 compounds were screened. Each hit was tested against resistant P. falciparum variants K1, V1S, D10DD, ATP4 1247, and C2B. Potency against these assays assured that the chemotype acts through a mechanism distinct from that of halofantrine, chloroquine, mefloquine, pyrimethamine, proguanil, atovaquone, and (+)SJ733. The toxicity of the compounds was also measured by testing their lethality against a BJ cell line (human fibroblasts). No TBNs were toxic. A structure activity investigation was performed in order to improve the EC50 of the TBNs to the single-digit nanomolar range, as well as to increase the water solubility.
(§3) Substituents were installed at N−2 by using a variety of methods. Reductive alkylation (Abdel-Magid, A. F.; Mehrman, S. J. A Review on the Use of Sodium Triacetoxyborohydride in the Reductive Amination of Ketones and Aldehydes. Org. Process Res. Dev. 2006, 10 (5), 971-1031) was a dependable technique that produced over fifteen analogues. Conjugate additions and nucleophilic substitutions provided most of the others. A type of reductive alkylation that uses carboxylic acids instead of aldehydes (the Beller reduction) led to two analogues (Sorribes, I.; Junge, K.; Beller, M. Direct Catalytic N-Alkylation of Amines with Carboxylic Acids. J. Am. Chem. Soc. 2014, 136 (40), 14314-14319. Some of the compounds listed were synthesized through other means, or were derived from other TBNs. Compounds 66 and 128 were produced by the amidation of acids 132 and 133, which had the corresponding substitution already installed. TBNs 93, and 94 were produced from the Pfitzinger products formed from the condensation of isatin with (R)-1-(1-phenylethyl)piperidin-4-one (134) and (S)-1-(1-phenylethyl)piperidin-4-one (135), respectively.

in vitro = conditions: human
Excerpt: as §1, §2

[2] = test system: resistant P. falciparum variant K1; test: Potency against resistant P. falciparum variant K1 (EC50); conditions: Plasmodium falciparum, K1, read-out: K1 EC50 (μM)
Method: as §2, §3

[3] = 3D7, read-out: 3D7 Mean EC50 (μM)
[4] = 3D7, read-out: 3D7 Mean EC50 of the TBN (μM)

Structure (SMILES): O=C1c2c3c(nc4cc(Cl)ccc24)CCN(CCc2ccccc2)C3N1c1ccc(Cl)cc1 (centres unmarked) [Compound 179, 8-Chloro-2-(4-chlorophenyl)-3-phenethyl-2a,3,4,5-tetrahydrobenzo[b]pyrrolo[4,3,2-de][1,6]naphthyridin-1(2H)-one]
- EC50 [1, 3]: 0.0059 ± 0.002 µM
- EC50 (in vitro): 22600 ± 373 nM

Structure (SMILES): O=C(Nc1ccc(Br)cc1)c1c2c(nc3cc(Cl)ccc13)CCN(CCc1ccccc1)C2 [Compound 171, N-(4-Bromophenyl)-7-chloro-2-phenethyl-1,2,3,4-tetrahydrobenzo[b][1,6]naphthyridine-10-carboxamide]
- EC50 [1, 3]: 0.37 ± 0.26 µM
- EC50 (in vitro): > 24000 nM

Structure (SMILES): O=C1c2c3c(nc4ccc(Cl)cc24)CCN(CCc2ccccc2)C3N1c1cccc(Cl)c1 (centres unmarked) [Compound 176, 9-Chloro-2-(3-chlorophenyl)-3-phenethyl-2a,3,4,5-tetrahydrobenzo[b]pyrrolo[4,3,2-de][1,6]naphthyridin-1(2H)-one]
- EC50 [1, 3]: < 0.00296 µM
- EC50 (in vitro): > 24000 nM

Structure (SMILES): O=C1c2c3c(nc4ccc(Cl)cc24)CCN(CCc2ccccc2)C3N1c1ccc(Cl)cc1 (centres unmarked) [Compound 181, 9-Chloro-2-(4-chlorophenyl)-3-phenethyl-2a,3,4,5-tetrahydrobenzo[b]pyrrolo[4,3,2-de][1,6]naphthyridin-1(2H)-one]
- EC50 [1, 3]: 0.0126 ± 0.002 µM
- EC50 (in vitro): > 24000 nM

Structure (SMILES): CC(C)(C)OC(=O)N1CCc2nc3ccccc3c(C(=O)Nc3ccc(F)c(F)c3)c2C1 [Compound 87, tert-Butyl 10-((3,4-difluorophenyl)carbamoyl)-3,4-dihydrobenzo[b][1,6]naphthyridine-2(1H)-carboxylate]
- EC50 [1, 3]: 1.67 ± 0.8 µM
- EC50 (in vitro): > 23300 nM

Structure (SMILES): O=C1c2c3c(nc4cc(Cl)ccc24)CCN(CCc2ccccc2)C3N1c1ccc(Br)cc1 (centres unmarked) [Compound 175, 2-(4-Bromophenyl)-8-chloro-3-phenethyl-2a,3,4,5-tetrahydrobenzo[b]pyrrolo[4,3,2-de][1,6]naphthyridin-1(2H)-one]
- EC50 [1, 3]: < 0.00192 µM
- EC50 (in vitro): 15200 ± 8470 nM

Structure (SMILES): COc1ccc(N2C(=O)c3c4c(nc5ccc(Cl)cc35)CCN(CCc3ccccc3)C42)cc1OC (centres unmarked) [Compound 185, 9-Chloro-2-(3,4-dimethoxyphenyl)-3-phenethyl-2a,3,4,5-tetrahydrobenzo[b]pyrrolo[4,3,2-de][1,6]naphthyridin-1(2H)-one]
- EC50 [1, 3]: 0.049 ± 0.016 µM
- EC50 (in vitro): > 24000 nM

Structure (SMILES): CC(c1ccccn1)N1CCc2nc3c(c(C(=O)Nc4ccc(F)c(F)c4)c2C1)CCCC3 (centres unmarked) [Compound 140, N-(3,4-Difluorophenyl)-2-(1-(pyridin-2-yl)ethyl)-1,2,3,4,6,7,8,9-octahydrobenzo[b][1,6]naphthyridine-10-carboxamide]
- EC50 [1, 3]: 1.5 ± 0.389 µM
- EC50 [1, 4]: 0.0603 ± 0.0234 µM
- EC50 [2]: 0.558 ± 0.123 µM

Structure (SMILES): CCOCCN1CCc2nc3ccccc3c(C(=O)Nc3ccc(F)c(F)c3)c2C1 [Compound 103, N-(3,4-Difluorophenyl)-2-(2-ethoxyethyl)-1,2,3,4-tetrahydrobenzo[b][1,6]naphthyridine-10-carboxamide]
- EC50 [1, 3]: 0.451 ± 0.416 µM
- EC50 [2]: 0.0391 µM

Structure (SMILES): O=C(O)CCN1CCc2nc3ccccc3c(C(=O)Nc3ccc(F)c(F)c3)c2C1 [Compound 131, 3-(10-((3,4-Difluorophenyl)carbamoyl)-3,4-dihydrobenzo[b][1,6]naphthyridin-2(1H)-yl)propanoic acid]
- EC50 [1, 3]: > 19.2 µM
- EC50 [2]: > 19.2 µM

Structure (SMILES): NCCN1CCc2nc3ccccc3c(C(=O)Nc3ccc(F)c(F)c3)c2C1 [Compound 129, 2-(2-Aminoethyl)-N-(3,4-difluorophenyl)-1,2,3,4-tetrahydrobenzo[b][1,6]naphthyridine-10-carboxamide]
- EC50 [1, 3]: 14.5 ± 4.73 µM
- EC50 [2]: 9.46 ± 0.982 µM

Structure (SMILES): COC(=O)C(C)CN1CCc2nc3ccccc3c(C(=O)Nc3ccc(F)c(F)c3)c2C1 (centres unmarked) [Compound 97, Methyl 3-(10-((3,4-difluorophenyl)carbamoyl)-3,4-dihydrobenzo[b][1,6]naphthyridin-2(1H)-yl)-2-methylpropanoate]
- EC50 [1, 3]: 0.328 ± 0.17 µM
- EC50 [2]: 0.185 µM

Structure (SMILES): CCCCN1CCc2nc3ccccc3c(C(=O)Nc3ccc(F)c(F)c3)c2C1 [Compound 99, 2-Butyl-N-(3,4-difluorophenyl)-1,2,3,4-tetrahydrobenzo[b][1,6]naphthyridine-10-carboxamide]
- EC50 [1, 3]: 0.37 ± 0.376 µM
- EC50 [2]: 0.102 µM

Structure (SMILES): O=C(Nc1ccc(F)c(F)c1)c1c2c(nc3ccccc13)CCN(CCO)C2 [Compound 120, N-(3,4-Difluorophenyl)-2-(2-hydroxyethyl)-1,2,3,4-tetrahydrobenzo[b][1,6]naphthyridine-10-carboxamide]
- EC50 [1, 3]: 3.84 ± 2.08 µM
- EC50 [2]: 2.2 ± 0.268 µM

Structure (SMILES): CC(c1ncccn1)N1CCc2nc3ccccc3c(C(=O)Nc3ccc(F)c(F)c3)c2C1 (centres unmarked) [Compound 104, N-(3,4-Difluorophenyl)-2-(1-(pyrimidin-2-yl)ethyl)-1,2,3,4-tetrahydrobenzo[b][1,6]naphthyridine-10-carboxamide]
- EC50 [1, 3]: 0.453 ± 0.238 µM
- EC50 [2]: 0.117 ± 0.0339 µM

Structure (SMILES): O=C(Nc1ccc(F)c(F)c1)c1c2c(nc3ccccc13)CCN(CCCO)C2 [Compound 122, N-(3,4-Difluorophenyl)-2-(3-hydroxypropyl)-1,2,3,4-tetrahydrobenzo[b][1,6]naphthyridine-10-carboxamide]
- EC50 [1, 3]: 6.81 ± 2.54 µM
- EC50 [2]: 4.64 ± 1.55 µM

Structure (SMILES): O=C(Nc1ccc(F)c(F)c1)c1c2c(nc3ccccc13)CCN(Cc1cccc(F)c1)C2 [Compound 100, N-(3,4-Difluorophenyl)-2-(3-fluorobenzyl)-1,2,3,4-tetrahydrobenzo[b][1,6]naphthyridine-10-carboxamide]
- EC50 [1, 3]: 0.412 ± 0.291 µM
- EC50 [2]: 0.161 µM

Structure (SMILES): C[C@H](c1ccccc1)N1CCc2nc3ccccc3c(C(=O)Nc3ccc(F)c(F)c3)c2C1 [Compound 93, (R)—N-(3,4-Difluorophenyl)-2-(1-phenylethyl)-1,2,3,4-tetrahydrobenzo[b][1,6]naphthyridine-10-carboxamide]
- EC50 [1, 3]: 0.131 ± 0.00623 µM
- EC50 [2]: 0.064 µM

Structure (SMILES): O=C(Nc1ccc(F)c(F)c1)c1c2c(nc3ccccc13)CCN(Cc1ccccn1)C2 [Compound 105, N-(3,4-Difluorophenyl)-2-(pyridin-2-ylmethyl)-1,2,3,4-tetrahydrobenzo[b][1,6]naphthyridine-10-carboxamide]
- EC50 [1, 3]: 0.456 ± 0.0964 µM
- EC50 [2]: 0.129 µM

Structure (SMILES): O=C(Nc1ccc(F)c(F)c1)c1c2c(nc3c1CN(Cc1ccccc1)CC3)CCCC2 [Compound 137, 2-Benzyl-N-(3,4-difluorophenyl)-1,2,3,4,6,7,8,9-octahydrobenzo[b][1,6]naphthyridine-10-carboxamide]
- EC50 [1, 3]: 0.0949 ± 0.0266 µM
- EC50 [1, 4]: > 3.49 µM
- EC50 [2]: 0.279 µM

Structure (SMILES): O=C(Nc1ccc(F)c(F)c1)c1c2c(nc3ccccc13)CCN(Cc1ccncc1)C2 [Compound 111, N-(3,4-Difluorophenyl)-2-(pyridin-4-ylmethyl)-1,2,3,4-tetrahydrobenzo[b][1,6]naphthyridine-10-carboxamide]
- EC50 [1, 3]: 0.983 ± 0.133 µM
- EC50 [2]: 0.647 µM

Structure (SMILES): O=C(Nc1ccc(F)c(F)c1)c1c2c(nc3ccccc13)CCN(CCCC(F)(F)F)C2 [Compound 108, N-(3,4-Difluorophenyl)-2-(4,4,4-trifluorobutyl)-1,2,3,4-tetrahydrobenzo[b][1,6]naphthyridine-10-carboxamide]
- EC50 [1, 3]: 0.665 ± 0.734 µM
- EC50 [2]: 0.241 µM

Structure (SMILES): O=C(Nc1ccc(F)c(F)c1)c1c2c(nc3ccccc13)CCN(Cc1cccnc1)C2 [Compound 106, N-(3,4-Difluorophenyl)-2-(pyridin-3-ylmethyl)-1,2,3,4-tetrahydrobenzo[b][1,6]naphthyridine-10-carboxamide]
- EC50 [1, 3]: 0.475 ± 0.163 µM
- EC50 [2]: 0.236 µM

Structure (SMILES): O=C(Nc1ccc(F)c(F)c1)c1c2c(nc3ccccc13)CCN(CC1CC1)C2 [Compound 101, 2-(Cyclopropylmethyl)-N-(3,4-difluorophenyl)-1,2,3,4-tetrahydrobenzo[b][1,6]naphthyridine-10-carboxamide]
- EC50 [1, 3]: 0.429 ± 0.303 µM
- EC50 [2]: 0.272 µM

Structure (SMILES): O=C(Nc1ccc(F)c(F)c1)c1c2c(nc3ccccc13)CCN(CCOC1CCCCO1)C2 (centres unmarked) [Compound 102, N-(3,4-Difluorophenyl)-2-(2-((tetrahydro-2H-pyran-2-yl)oxy)ethyl)-1,2,3,4-tetrahydrobenzo[b][1,6]naphthyridine-10-carboxamide]
- EC50 [1, 3]: 0.441 ± 0.156 µM
- EC50 [2]: 0.178 ± 0.0436 µM

Structure (SMILES): CN(C)CCN1CCc2nc3ccccc3c(C(=O)Nc3ccc(F)c(F)c3)c2C1 [Compound 124, N-(3,4-Difluorophenyl)-2-(2-(dimethylamino)ethyl)-1,2,3,4-tetrahydrobenzo[b][1,6]naphthyridine-10-carboxamide]
- EC50 [1, 3]: 8.54 ± 1.84 µM
- EC50 [2]: > 19.2 µM

Structure (SMILES): CC(C)(O)CCN1CCc2nc3ccccc3c(C(=O)Nc3ccc(F)c(F)c3)c2C1 [Compound 116, N-(3,4-Difluorophenyl)-2-(3-hydroxy-3-methylbutyl)-1,2,3,4-tetrahydrobenzo[b][1,6]naphthyridine-10-carboxamide]
- EC50 [1, 3]: 2.01 ± 0.277 µM
- EC50 [2]: 1.44 ± 0.337 µM
